Experimental data reported in ChEMBL document CHEMBL1743141, “Membrane transporters in drug development” (Nat Rev Drug Discov, 2010).

Key:
Format in all cases: ADME
[1] = target: T1, ATP-binding cassette sub-family C member 2 (Homo sapiens, UniProt Q92887); experiment: Inhibitors of transporters of clinical importance in the absorption and disposition of drugs, MRP2
[2] = target: T2, ATP-binding cassette sub-family C member 3 (Homo sapiens, UniProt O15438); experiment: Inhibitors of transporters of clinical importance in the absorption and disposition of drugs, MPR3
[3] = target: T3, Broad substrate specificity ATP-binding cassette transporter ABCG2 (Homo sapiens, UniProt Q9UNQ0); experiment: Inhibitors of transporters of clinical importance in the absorption and disposition of drugs, BCRP
T3 sequence (Q9UNQ0 whole entry): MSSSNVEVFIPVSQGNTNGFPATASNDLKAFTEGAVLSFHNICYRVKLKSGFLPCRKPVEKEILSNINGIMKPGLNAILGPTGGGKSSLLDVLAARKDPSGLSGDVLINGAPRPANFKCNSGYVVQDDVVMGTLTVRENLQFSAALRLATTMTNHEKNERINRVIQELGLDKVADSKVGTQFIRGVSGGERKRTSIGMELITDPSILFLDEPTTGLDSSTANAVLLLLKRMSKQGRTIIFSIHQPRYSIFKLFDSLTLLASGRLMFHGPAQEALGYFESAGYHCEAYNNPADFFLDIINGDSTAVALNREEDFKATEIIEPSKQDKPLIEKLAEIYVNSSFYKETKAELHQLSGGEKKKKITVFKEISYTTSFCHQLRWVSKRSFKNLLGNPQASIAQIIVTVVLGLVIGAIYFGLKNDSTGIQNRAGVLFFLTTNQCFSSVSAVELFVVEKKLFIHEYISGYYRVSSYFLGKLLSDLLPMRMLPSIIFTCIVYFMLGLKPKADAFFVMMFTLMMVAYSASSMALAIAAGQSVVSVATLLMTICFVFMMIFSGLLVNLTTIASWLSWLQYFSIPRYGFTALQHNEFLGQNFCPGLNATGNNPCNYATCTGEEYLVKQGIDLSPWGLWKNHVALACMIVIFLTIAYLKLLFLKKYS

[4] = target: T4, Solute carrier organic anion transporter family member 1A2 (Homo sapiens, UniProt P46721); experiment: Substrates of transporters of clinical importance in the absorption and disposition of drugs, OATP1A2
T4 sequence (P46721 whole entry): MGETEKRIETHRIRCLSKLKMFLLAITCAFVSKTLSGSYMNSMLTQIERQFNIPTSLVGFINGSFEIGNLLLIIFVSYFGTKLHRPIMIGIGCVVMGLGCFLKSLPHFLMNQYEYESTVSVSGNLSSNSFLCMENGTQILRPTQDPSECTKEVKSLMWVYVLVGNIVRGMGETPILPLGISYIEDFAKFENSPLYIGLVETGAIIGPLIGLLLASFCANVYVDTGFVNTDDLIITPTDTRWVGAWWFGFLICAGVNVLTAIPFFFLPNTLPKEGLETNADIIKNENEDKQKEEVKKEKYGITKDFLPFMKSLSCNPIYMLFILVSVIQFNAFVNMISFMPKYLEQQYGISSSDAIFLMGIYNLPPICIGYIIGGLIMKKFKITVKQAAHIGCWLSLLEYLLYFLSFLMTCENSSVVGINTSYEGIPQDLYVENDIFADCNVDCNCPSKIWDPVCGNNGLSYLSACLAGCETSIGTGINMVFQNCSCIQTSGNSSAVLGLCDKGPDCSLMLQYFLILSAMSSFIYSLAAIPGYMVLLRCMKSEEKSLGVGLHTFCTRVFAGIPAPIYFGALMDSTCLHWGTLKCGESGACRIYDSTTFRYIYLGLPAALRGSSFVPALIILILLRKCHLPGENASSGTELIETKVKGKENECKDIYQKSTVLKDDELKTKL

[5] = target: T3, Broad substrate specificity ATP-binding cassette transporter ABCG2; experiment: Substrates of transporters of clinical importance in the absorption and disposition of drugs, BCRP
[6] = target: T1, ATP-binding cassette sub-family C member 2; experiment: Substrates of transporters of clinical importance in the absorption and disposition of drugs, MRP2
[7] = target: T2, ATP-binding cassette sub-family C member 3; experiment: Substrates of transporters of clinical importance in the absorption and disposition of drugs, MPR3
[8] = target: T5, ATP-binding cassette sub-family C member 4 (Homo sapiens, UniProt O15439); experiment: Substrates of transporters of clinical importance in the absorption and disposition of drugs, MRP4
T5 sequence (O15439 whole entry): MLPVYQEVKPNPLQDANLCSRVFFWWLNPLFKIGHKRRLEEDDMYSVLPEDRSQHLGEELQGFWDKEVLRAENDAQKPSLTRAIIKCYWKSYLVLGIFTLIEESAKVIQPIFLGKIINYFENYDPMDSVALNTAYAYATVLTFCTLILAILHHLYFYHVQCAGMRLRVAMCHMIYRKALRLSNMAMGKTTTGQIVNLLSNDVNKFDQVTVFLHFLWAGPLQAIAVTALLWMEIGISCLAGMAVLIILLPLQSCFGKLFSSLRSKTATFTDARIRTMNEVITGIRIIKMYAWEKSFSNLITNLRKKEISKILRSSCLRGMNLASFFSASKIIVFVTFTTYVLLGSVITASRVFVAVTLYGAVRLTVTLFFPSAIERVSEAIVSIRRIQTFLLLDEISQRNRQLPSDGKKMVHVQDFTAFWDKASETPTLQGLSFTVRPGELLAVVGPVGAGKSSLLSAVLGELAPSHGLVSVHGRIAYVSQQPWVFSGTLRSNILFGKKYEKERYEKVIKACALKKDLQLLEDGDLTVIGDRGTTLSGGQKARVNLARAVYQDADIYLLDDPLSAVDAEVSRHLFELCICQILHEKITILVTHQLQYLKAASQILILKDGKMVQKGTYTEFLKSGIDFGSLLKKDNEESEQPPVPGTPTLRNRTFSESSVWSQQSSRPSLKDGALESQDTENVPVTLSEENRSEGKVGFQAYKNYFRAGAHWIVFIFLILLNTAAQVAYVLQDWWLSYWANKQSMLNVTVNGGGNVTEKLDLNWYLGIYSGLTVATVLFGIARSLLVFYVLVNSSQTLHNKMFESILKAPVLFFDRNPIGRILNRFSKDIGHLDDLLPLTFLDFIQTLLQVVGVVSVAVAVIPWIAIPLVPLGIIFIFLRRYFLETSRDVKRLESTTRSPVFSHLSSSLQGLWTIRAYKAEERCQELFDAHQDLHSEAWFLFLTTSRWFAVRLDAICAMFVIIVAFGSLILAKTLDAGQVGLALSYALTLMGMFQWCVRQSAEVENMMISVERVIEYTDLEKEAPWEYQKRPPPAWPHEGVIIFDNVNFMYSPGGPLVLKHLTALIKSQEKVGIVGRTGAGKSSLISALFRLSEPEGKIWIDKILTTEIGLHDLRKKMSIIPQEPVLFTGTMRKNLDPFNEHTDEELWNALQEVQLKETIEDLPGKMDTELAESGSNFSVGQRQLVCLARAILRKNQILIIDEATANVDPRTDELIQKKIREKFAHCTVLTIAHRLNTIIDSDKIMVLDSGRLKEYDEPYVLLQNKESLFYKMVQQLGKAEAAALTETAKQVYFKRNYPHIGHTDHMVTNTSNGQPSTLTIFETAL

[9] = target: T6, Solute carrier organic anion transporter family member 1B1 (Homo sapiens, UniProt Q9Y6L6); experiment: Substrates of transporters of clinical importance in the absorption and disposition of drugs, OATP1B1
T6 sequence (Q9Y6L6 whole entry): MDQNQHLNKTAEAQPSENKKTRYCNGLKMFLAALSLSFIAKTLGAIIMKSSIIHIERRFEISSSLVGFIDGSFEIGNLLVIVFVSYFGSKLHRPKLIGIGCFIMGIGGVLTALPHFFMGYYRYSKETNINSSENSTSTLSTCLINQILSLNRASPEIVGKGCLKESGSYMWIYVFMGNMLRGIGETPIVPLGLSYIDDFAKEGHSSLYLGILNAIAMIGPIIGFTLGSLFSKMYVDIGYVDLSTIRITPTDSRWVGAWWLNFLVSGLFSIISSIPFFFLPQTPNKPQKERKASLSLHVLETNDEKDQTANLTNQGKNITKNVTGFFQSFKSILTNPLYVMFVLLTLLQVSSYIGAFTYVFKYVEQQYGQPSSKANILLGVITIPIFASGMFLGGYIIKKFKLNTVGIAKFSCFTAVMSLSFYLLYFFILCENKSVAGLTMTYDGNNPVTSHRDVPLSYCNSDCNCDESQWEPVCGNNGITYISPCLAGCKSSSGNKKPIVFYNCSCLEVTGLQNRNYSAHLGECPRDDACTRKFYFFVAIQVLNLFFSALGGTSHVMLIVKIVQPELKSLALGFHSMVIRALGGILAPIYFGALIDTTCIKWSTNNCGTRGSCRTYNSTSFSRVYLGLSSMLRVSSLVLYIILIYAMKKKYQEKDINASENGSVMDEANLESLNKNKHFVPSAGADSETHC

[10] = target: T7, Solute carrier organic anion transporter family member 1B3 (Homo sapiens, UniProt Q9NPD5); experiment: Substrates of transporters of clinical importance in the absorption and disposition of drugs, OATP1B3
T7 sequence (Q9NPD5 whole entry): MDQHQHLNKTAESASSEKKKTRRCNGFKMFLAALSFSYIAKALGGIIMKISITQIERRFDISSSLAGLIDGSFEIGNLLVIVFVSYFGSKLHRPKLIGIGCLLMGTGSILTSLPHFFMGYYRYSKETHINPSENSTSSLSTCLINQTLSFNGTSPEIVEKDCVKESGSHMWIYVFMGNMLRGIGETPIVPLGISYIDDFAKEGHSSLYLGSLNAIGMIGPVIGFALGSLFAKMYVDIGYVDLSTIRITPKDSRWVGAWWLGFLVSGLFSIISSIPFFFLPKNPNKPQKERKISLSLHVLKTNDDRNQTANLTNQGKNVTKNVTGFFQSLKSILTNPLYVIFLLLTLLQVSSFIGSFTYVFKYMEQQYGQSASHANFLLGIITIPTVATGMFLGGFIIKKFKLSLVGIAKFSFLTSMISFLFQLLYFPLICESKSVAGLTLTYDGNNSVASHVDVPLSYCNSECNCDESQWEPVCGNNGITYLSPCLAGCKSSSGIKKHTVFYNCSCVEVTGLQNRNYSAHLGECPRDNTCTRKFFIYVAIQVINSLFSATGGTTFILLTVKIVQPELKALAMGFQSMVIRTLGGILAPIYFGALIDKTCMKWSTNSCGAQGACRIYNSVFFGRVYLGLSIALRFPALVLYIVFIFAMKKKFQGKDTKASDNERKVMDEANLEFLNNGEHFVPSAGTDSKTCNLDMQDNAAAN

[11] = target: T8, Solute carrier organic anion transporter family member 2B1 (Homo sapiens, UniProt O94956); experiment: Substrates of transporters of clinical importance in the absorption and disposition of drugs, OATP2B1
T8 sequence (O94956 whole entry): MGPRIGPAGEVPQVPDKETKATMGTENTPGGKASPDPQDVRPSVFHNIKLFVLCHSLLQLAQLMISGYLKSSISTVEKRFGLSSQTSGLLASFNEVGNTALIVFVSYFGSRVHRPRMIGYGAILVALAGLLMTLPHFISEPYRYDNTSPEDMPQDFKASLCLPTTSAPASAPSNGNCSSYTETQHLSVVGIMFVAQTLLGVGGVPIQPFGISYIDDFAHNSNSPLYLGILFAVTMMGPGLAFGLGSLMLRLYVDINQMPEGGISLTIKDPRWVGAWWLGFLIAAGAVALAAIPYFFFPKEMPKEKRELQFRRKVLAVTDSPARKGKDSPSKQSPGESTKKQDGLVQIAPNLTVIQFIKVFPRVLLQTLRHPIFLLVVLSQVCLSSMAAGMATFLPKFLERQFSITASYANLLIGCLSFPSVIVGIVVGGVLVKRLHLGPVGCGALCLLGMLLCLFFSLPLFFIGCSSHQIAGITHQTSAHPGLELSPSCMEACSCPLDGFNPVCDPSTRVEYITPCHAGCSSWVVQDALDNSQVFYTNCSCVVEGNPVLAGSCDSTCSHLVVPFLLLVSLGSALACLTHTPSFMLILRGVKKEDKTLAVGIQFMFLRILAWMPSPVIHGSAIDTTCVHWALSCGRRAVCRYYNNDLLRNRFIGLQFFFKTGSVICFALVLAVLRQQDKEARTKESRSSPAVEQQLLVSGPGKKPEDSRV

[12] = target: T6, Solute carrier organic anion transporter family member 1B1; experiment: Inhibitors of transporters of clinical importance in the absorption and disposition of drugs, OATP1B1
[13] = target: T4, Solute carrier organic anion transporter family member 1A2; experiment: Inhibitors of transporters of clinical importance in the absorption and disposition of drugs, OATP1A2

T2 sequence (O15438 whole entry): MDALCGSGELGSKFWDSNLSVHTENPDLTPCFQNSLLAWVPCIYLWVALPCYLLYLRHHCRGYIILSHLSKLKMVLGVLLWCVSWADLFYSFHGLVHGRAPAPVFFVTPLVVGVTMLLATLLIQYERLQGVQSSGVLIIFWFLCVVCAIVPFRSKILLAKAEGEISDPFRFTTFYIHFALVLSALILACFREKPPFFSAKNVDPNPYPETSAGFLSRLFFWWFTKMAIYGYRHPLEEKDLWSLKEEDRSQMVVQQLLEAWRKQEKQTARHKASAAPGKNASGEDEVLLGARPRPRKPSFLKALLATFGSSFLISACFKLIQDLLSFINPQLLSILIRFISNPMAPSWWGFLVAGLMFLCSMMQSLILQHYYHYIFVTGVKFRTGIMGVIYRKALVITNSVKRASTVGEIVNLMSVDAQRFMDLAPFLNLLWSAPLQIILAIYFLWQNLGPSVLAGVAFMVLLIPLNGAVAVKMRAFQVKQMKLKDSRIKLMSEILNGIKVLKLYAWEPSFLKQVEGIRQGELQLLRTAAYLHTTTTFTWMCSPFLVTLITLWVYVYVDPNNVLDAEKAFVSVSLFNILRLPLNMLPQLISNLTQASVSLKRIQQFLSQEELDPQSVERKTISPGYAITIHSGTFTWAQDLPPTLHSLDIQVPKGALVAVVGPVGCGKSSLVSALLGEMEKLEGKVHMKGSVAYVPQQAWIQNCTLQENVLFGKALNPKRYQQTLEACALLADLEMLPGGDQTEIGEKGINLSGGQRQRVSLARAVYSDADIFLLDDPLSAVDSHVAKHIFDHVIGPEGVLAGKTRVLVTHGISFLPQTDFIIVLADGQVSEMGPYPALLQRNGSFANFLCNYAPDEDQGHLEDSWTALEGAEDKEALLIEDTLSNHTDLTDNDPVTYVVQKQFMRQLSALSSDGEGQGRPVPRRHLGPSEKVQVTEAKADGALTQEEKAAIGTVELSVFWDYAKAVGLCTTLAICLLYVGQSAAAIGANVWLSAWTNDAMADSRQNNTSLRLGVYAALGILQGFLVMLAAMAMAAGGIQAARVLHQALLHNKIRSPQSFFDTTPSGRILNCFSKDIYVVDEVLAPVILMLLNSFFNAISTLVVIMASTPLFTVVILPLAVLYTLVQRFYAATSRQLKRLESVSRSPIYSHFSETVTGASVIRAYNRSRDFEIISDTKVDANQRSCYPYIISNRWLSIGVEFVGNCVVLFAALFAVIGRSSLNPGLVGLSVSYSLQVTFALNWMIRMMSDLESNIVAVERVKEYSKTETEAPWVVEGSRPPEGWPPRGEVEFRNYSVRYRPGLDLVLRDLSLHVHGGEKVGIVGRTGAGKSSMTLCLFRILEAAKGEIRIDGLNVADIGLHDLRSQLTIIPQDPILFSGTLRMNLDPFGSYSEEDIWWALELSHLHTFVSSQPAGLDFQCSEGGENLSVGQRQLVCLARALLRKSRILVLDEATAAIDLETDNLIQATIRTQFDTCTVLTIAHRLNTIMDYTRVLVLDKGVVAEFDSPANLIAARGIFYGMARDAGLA
T1 sequence (Q92887 whole entry): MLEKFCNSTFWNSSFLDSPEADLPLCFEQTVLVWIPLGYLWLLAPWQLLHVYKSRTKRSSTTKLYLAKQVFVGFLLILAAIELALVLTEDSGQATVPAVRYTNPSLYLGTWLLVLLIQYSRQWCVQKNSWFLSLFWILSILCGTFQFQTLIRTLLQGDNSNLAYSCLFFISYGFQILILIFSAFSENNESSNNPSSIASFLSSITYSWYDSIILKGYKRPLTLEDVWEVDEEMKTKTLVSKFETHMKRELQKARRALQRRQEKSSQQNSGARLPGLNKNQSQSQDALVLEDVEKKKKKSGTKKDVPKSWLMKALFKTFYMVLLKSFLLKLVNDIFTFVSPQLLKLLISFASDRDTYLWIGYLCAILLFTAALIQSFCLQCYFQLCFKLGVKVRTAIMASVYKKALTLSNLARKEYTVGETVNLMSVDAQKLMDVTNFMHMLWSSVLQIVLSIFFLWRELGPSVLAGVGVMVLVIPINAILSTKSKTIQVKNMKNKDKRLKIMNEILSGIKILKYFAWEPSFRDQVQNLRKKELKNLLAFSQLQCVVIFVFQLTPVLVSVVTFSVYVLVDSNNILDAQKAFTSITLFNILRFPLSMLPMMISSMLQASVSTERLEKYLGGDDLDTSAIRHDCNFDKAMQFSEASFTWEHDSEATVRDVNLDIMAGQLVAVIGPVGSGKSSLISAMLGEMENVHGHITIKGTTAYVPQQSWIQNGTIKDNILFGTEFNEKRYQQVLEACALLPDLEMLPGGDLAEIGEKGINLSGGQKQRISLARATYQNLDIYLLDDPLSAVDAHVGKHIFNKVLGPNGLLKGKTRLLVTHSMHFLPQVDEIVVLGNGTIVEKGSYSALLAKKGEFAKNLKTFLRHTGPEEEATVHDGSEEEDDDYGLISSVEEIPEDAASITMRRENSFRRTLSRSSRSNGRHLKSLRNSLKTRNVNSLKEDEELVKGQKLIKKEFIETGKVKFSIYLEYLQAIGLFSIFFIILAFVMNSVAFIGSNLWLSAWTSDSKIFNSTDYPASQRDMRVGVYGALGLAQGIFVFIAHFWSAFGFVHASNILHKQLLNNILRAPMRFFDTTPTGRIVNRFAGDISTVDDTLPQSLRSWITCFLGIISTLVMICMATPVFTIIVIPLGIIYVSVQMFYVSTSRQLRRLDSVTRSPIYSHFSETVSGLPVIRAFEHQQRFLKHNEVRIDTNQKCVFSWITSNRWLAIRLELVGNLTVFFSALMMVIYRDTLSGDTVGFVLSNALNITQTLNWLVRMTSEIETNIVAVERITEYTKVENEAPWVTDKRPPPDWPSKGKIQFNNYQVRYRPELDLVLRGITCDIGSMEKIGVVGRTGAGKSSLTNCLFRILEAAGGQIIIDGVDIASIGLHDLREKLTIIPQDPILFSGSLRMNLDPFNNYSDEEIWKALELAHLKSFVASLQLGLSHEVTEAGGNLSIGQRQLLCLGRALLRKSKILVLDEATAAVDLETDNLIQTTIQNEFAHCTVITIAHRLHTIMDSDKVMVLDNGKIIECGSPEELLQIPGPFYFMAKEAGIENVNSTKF

O=C1Nc2ccc(Cl)cc2[C@@](C#CC2CC2)(C(F)(F)F)O1 [EFAVIRENZ]
Activity [1]: transporter inhibitor
Activity [2]: transporter inhibitor

COc1ccc2c3c([nH]c2c1)[C@H](C=C(C)C)N1C(=O)[C@@H]2CCCN2C(=O)[C@@H]1C3 [FUMITREMORGIN]
Activity [3]: transporter inhibitor

CC(C)Nc1cccnc1N1CCN(C(=O)c2cc3cc(NS(C)(=O)=O)ccc3[nH]2)CC1 [DELAVIRDINE]
Activity [1]: transporter inhibitor
Activity [2]: transporter inhibitor

C[C@]12CC[C@@H]3c4ccc(O)cc4CC[C@H]3[C@@H]1CC[C@@H]2O [ESTRADIOL]
Activity [3]: transporter inhibitor

CN(Cc1cnc2nc(N)nc(N)c2n1)c1ccc(C(=O)N[C@@H](CCC(=O)O)C(=O)O)cc1 [METHOTREXATE]
Activity [4]: transporter substrate
Activity [5]: transporter substrate
Activity [6]: transporter substrate
Activity [7]: transporter substrate
Activity [8]: transporter substrate

C[C@]12CC[C@@H]3c4ccc(O)cc4CC[C@H]3[C@@H]1CC[C@@H]2O[C@@H]1O[C@H](C(=O)O)[C@@H](O)[C@H](O)[C@H]1O [ESTRADIOL 17B GLUCURONIDE]
Activity [9]: transporter substrate
Activity [10]: transporter substrate
Activity [7]: transporter substrate

CC(C)(C(=O)O)c1ccc(C(O)CCCN2CCC(C(O)(c3ccccc3)c3ccccc3)CC2)cc1 (stereo unspecified) [FEXOFENADINE]
Activity [10]: transporter substrate
Activity [4]: transporter substrate
Activity [11]: transporter substrate
Activity [7]: transporter substrate

C[C@]12CC[C@@H]3c4ccc(O)cc4CC[C@H]3[C@@H]1CCC2=O [ESTRONE]
Activity [3]: transporter inhibitor

CC(C)(C)NC(=O)[C@@H]1C[C@@H]2CCCC[C@@H]2CN1C[C@@H](O)[C@H](Cc1ccccc1)NC(=O)[C@H](CC(N)=O)NC(=O)c1ccc2ccccc2n1
Activity [12]: transporter inhibitor
Activity [13]: transporter inhibitor
